Source: PMC9144329, “Multitarget Action of Xanthones from Garcinia mangostana against α-Amylase, α-Glucosidase and Pancreatic Lipase” (Molecules, 2022)
Where two headings read alike, the source gives them in different places.

What was measured:
[1] = target: T1, pancreatic lipase type II (PL) from porcine pancreas (Sus scrofa, UniProt P00591); assay: PL inhibition assay; assay type: biochemical; conditions: for IC50: evaluated range 6.25 µM–1000 µM, mean of n = 3 ± SD
T1 construct: pancreatic lipase type II (PL) from porcine pancreas; purchased Sigma-Aldrich L-SLBD2433V; host or cells: porcine pancreas
T1 sequence (P00591 1-450): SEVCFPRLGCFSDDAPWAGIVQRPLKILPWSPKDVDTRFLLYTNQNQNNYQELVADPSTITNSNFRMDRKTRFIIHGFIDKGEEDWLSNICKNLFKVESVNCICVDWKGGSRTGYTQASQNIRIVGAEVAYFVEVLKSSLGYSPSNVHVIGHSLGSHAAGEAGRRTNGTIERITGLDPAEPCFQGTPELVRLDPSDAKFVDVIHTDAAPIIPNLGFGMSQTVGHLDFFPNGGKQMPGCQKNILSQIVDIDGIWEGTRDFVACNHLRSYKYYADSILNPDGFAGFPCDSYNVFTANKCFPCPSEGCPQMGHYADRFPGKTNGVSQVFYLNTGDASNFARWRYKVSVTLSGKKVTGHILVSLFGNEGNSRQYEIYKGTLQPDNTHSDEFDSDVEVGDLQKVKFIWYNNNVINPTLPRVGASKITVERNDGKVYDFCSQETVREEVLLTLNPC

[2] = target: T2, α-glucosidase (AG) type I from Saccharomyces cerevisiae (Saccharomyces cerevisiae, UniProt P53341); assay: biochemical
[3] = target: T3, α-amylase (AA) type VI-B from porcine pancreas (Sus scrofa, UniProt P00690); assay: AA inhibition assay; conditions: for IC50: α-Amylase IC50 (µM), evaluated range 6.25 µM–1000 µM, mean of n = 3 ± SD
T3 sequence (P00690 16-511): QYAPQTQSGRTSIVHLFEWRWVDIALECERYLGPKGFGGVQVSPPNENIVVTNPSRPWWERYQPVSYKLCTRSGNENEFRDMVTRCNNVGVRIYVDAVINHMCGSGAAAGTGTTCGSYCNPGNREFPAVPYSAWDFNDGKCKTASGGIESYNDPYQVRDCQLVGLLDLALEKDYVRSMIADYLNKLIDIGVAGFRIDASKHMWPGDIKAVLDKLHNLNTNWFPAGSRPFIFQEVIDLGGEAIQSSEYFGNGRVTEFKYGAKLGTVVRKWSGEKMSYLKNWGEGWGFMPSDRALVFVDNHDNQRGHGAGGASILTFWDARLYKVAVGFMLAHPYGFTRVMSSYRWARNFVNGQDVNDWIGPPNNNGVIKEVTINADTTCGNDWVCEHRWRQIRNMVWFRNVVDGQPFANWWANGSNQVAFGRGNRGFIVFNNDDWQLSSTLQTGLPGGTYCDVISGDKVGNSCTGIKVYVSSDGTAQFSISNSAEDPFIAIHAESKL

[4] = target: T2, α-glucosidase (AG) type I from Saccharomyces cerevisiae; assay: biochemical; assay type: biochemical; set-up: purchased Sigma-Aldrich L-SLBX6245
[5] = target: T1, pancreatic lipase type II (PL) from porcine pancreas; assay: Kinetic study on PL; assay type: biochemical; conditions: for Ki: substrate p-nitrophenyl dodecanoate
[6] = test system: PL; conditions: cited from earlier work
[7] = target: α-glucosidase; conditions: cited from earlier work
[8] = target: T3, α-amylase (AA) type VI-B from porcine pancreas; assay: Kinetic study on AA; assay type: biochemical; set-up: α-amylase (AA) type VI-B from porcine pancreas; purchased Sigma-Aldrich L-SLBP4061V; host or cells: porcine pancreas; conditions: for Ki: substrate starch
[9] = target: α-amylase; conditions: cited from earlier work; for % inhibition of AA, previous studies: at a concentration of 100 µM
[10] = target: T2, α-glucosidase (AG) type I from Saccharomyces cerevisiae
[11] = substrate p-nitrophenyl-α-D-glucopyranoside, read-out: α-Glucosidase Ki
[12] = ref 17, 37, read-out: IC50 against PL, previous studies
[13] = ref 39, read-out: IC50 against AG, Ryu and collaborators
[14] = α-Glucosidase IC50 (µM), evaluated range 6.25 µM–1000 µM, mean of n = 3 ± SD
[15] = ref 31-34, read-out: IC50 against α-amylase
[16] = ref 31-34, read-out: IC50 against PL
[17] = ref 10, read-out: IC50 against AG, Li and collaborators
[18] = ref 53, read-out: IC50 against AG, Vongsak and collaborators

T2 sequence (P53341 whole entry): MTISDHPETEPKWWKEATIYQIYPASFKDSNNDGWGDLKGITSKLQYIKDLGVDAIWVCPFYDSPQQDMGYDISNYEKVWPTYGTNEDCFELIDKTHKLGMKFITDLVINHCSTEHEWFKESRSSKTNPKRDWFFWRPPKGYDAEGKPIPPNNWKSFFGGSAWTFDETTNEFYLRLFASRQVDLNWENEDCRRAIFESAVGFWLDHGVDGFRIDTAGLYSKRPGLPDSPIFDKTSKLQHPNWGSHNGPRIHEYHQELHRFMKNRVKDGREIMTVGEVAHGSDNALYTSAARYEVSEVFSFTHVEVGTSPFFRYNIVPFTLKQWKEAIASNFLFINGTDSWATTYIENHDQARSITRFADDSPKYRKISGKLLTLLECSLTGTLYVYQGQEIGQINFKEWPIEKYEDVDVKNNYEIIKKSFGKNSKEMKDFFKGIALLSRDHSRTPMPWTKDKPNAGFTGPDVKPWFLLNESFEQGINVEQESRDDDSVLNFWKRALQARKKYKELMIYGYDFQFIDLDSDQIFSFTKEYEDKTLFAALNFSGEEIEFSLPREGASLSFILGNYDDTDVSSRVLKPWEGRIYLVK

| Ki [4, 11] [µM] | Compound | IC50 [1] [µM] | IC50 [3] [µM] | type of inhibition against PL (in words) [5] | Ki [5] [µM] | IC50 [7, 13] [µM] | IC50 [2, 14] [µM] | type of inhibition on AA (in words) [8] | Ki [8] [µM] | other results |
| --- | --- | --- | --- | --- | --- | --- | --- | --- | --- | --- |
| 37.2 | COc1c(O)cc2oc3cc4c(c(O)c3c(=O)c2c1CC=C(C)C)CCC(C)(C)O4 [Compound 7, 3-isomangostin] | > 1000 | > 1000 | – | – | – | – | – | – | inhibition in the catalytic activity of PL (in words) [1]: did not cause any inhibition; IC50 [2]: 37.2 ± 4.1 µM; inhibitory activity on AA (in words) [3]: completely lost |
| 248 | CC(C)=CCc1c(O)c(CC=C(C)C)c2oc3c(O)cccc3c(=O)c2c1O [Compound 2, 8-deoxygartanin] | 326 ± 7.1 | 166 ± 4.1 | non-competitive inhibitors | 326 | 21.5 | 248 ± 4 | non-competitive type of inhibitor | 166 | IC50 [6, 12]: 50 µM |
| – | mangoxanthone A [reference compound] | – | – | – | – | – | – | – | – | IC50 [9, 15]: 22.7 µM; IC50 ([7]; ref 31-34, read-out: IC50 against α-glucosidase): 29.1 µM |
| – | COc1cc2oc3c(C)c(OC)c(CC=C(C)C)c(O)c3c(=O)c2c(CC=C(C)C)c1OC [Compound 11, 3,6-di-methoxy-4-methyl-α-mangostin] | 59.4 ± 3.8 | > 1000 | mixed inhibitors | 59.4 | – | > 1000 | – | – | inhibition in the catalytic activity of AG (in words) [10]: did not cause any inhibition; inhibitory activity on AA (in words) [3]: completely annuls the activity |
| – | Garcimangophenones A [Garcimangophenone A, reference compound] | – | – | – | – | – | – | – | – | IC50 [9, 15]: 9.3 µM |
| – | CCCCCOc1cc2oc3cc(OCCCCC)c(OC)c(CC=C(C)C)c3c(=O)c2c(O)c1CC=C(C)C [Compound 10, 3,6-di-pentoxy-α-mangostin] | > 1000 | > 1000 | – | – | – | > 1000 | – | – | inhibition in the catalytic activity of PL (in words) [1]: did not cause any inhibition; inhibition in the catalytic activity of AG (in words) [10]: did not cause any inhibition |
| – | COc1c(O)cc2oc3cc(O)c(CC=C(C)C)c(O)c3c(=O)c2c1CC=C(C)C [Compound 4, α-mangostin] | 50.6 ± 6.7 | 318 ± 4.3 | non-competitive inhibitors | 50.6 | 5 | – | competitive type inhibitors | 240 | IC50 [6, 12]: 47.3 µM; IC50 [6, 16]: 5 µM; % inhibition of AA, previous studies [9]: 60%; IC50 ([9]; ref 17, read-out: IC50 against AA, previous studies): 29.6 µM; IC50 [7, 17]: 10 µM; IC50 [7, 18]: 29.2 µM; IC50 [2]: 31.6 ± 2.6 µM; Ki [4]: 31.6 µM |
| – | O=C(c1cc(O)ccc1O)c1c(O)cc(O)cc1O[C@@H]1O[C@H](CO)[C@@H](O)[C@H](O)[C@H]1O [Garcimangophenone B, reference compound] | – | – | – | – | – | – | – | – | IC50 [9, 15]: 12.2 µM |
| – | CC(C)=CCc1c(O)cc2oc3cc(O)c(O)c(CC=C(C)C)c3c(=O)c2c1O [Compound 5, γ-mangostin] | 67.1 ± 2.8 | 333 ± 4.5 | – | 57.2 | 1.5 | 84.7 ± 6.7 | competitive type inhibitors | 139 | IC50 [6, 16]: 10 µM; % inhibition of AA, previous studies [9]: 67.3%; IC50 [7, 17]: 5 µM; IC50 [7, 18]: 4.2 µM; Ki [4]: 84.7 µM |
| – | CC1(C)CCc2c(cc3oc4cc(O)c5c(c4c(=O)c3c2O)CCC(C)(C)O5)O1 [Compound 8, BR-xanthone A] | > 1000 | > 1000 | – | – | – | – | – | – | inhibition in the catalytic activity of PL (in words) [1]: did not cause any inhibition; melting point: 160 to 162 °C; inhibition in the catalytic activity of AG (in words) [10]: did not cause any inhibition; IC50 [2]: > 1000 µM; inhibitory activity on AA (in words) [3]: completely lost |
| 124 | CC(C)=CCc1c(O)c(CC=C(C)C)c2oc3c(O)ccc(O)c3c(=O)c2c1O [Compound 3, gartanin] | 135 ± 1.5 | > 1000 | uncompetitive inhibitors | 130 | 10 | 124 ± 8.2 | – | – | IC50 [6, 12]: 12 µM |
| – | COc1c(O)cc2oc3cc(O)c(CCC(C)C)c(O)c3c(=O)c2c1CCC(C)C [Compound 9, tetrahydro-α-mangostin] | 454.6 ± 1.9 | 90.1 ± 6 | mixed inhibitors | 405 | – | – | competitive type inhibitors | 90.1 | IC50 [2]: 34.2 ± 1.8 µM; Ki [4]: 34.2 µM; type of inhibition of AG (in words) [4]: competitive inhibitors |

| Compound | Ki [4, 11] [µM] | IC50 [1] [µM] | IC50 [3] [µM] | type of inhibition against PL (in words) [5] | Ki [5] [µM] | IC50 [7, 13] [µM] | IC50 [2, 14] [µM] | type of inhibition on AA (in words) [8] | Ki [8] [µM] | other results |
| --- | --- | --- | --- | --- | --- | --- | --- | --- | --- | --- |
| COc1cc2oc3cc(OC)c(OC)c(CC=C(C)C)c3c(=O)c2c(O)c1CC=C(C)C [Compound 6, fuscaxanthone C] | 0.3 | 69.2 ± 4.9 | 164.4 ± 0.9 | mixed inhibitors | 69.2 | – | 33.3 ± 4.1 | competitive type inhibitors | 28.6 | melting point: 118 to 120 °C; type of inhibition of AG (in words) [4]: competitive inhibitors |
| COc1c(O)cc2oc3cc4c(c(O)c3c(=O)c2c1CC=C(C)C)C=CC(C)(C)O4 [Compound 1, 9-hydroxycalabaxanthone] | 154 | 138 ± 6.8 | > 1000 | non-competitive inhibitors | 138 | 34.2 | 157 ± 2.1 | – | – | IC50 [6, 12]: 12 µM; inhibitory activity on AA (in words) [3]: completely lost; type of inhibition of AG (in words) [4]: uncompetitive inhibitor |
